Data on 2 compounds can be found in article PMC11048482 (Biomolecules, 2024).

Where two headings read alike, the source gives them in different places.

For the assay, the target named is T1, SP_0166 (Streptococcus pneumoniae, UniProt A0A0H2UNA7).
T1 construct: full length, 368 residues, 42,757 Da; pET-28a(+) BamHI/XhoI, C-terminal 6xHis tag kept; expressed in E. coli BL21(DE3)
The assay is described as follows: LC-MS/MS of agmatine formed from arginine. The class given is biochemical.

T1 sequence (A0A0H2UNA7 entry or part of it): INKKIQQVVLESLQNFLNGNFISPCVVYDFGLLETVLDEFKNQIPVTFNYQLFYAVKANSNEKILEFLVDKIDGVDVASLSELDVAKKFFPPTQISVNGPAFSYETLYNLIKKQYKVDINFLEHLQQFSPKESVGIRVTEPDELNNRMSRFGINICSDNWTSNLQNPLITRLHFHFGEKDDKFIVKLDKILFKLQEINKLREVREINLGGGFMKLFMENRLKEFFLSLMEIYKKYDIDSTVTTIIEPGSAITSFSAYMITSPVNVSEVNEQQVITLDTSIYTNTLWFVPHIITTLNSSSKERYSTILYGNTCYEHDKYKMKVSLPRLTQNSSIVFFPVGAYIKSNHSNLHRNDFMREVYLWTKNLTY

For `N=C(N)NCCCC(N)(C(=O)O)C(F)F` (centres unmarked) [DFMA], the IC50 (read-out: DFMA IC50) is 0.0216 ± 0.0104 mM.
For the compound `NCCCC(N)(C(=O)O)C(F)F` (centres unmarked) [DFMO], the IC50 (read-out: DFMO IC50) is 27 ± 4.5 mM.

A word on the IC50: it is the concentration that gives 50% inhibition.
